Test system: LdtMav2
Experiment: nitrocefin hydrolysis, absorbance at […] nm, Michaelis-Menten fit
Assay type: biochemical, Mycobacterium avium
Conditions: pH 6.5, 25 °C

Km: 75 µM
Compound: O=C(Cc1cccs1)N[C@@H]1C(=O)N2C(C(=O)O)=C(/C=C/c3ccc([N+](=O)[O-])cc3[N+](=O)[O-])CS[C@H]12 [nitrocefin]

From paper PMC5619143 (Future Microbiology, 2017)
